Results as given in USRE48097E1, “Cephem compounds, their production and use” (priority 2015, dated 2020).
Values after ≈ are worked out from the molar mass of the structure shown. Read-outs that look alike come from different tables or passages of the source.

How the values were obtained:
Type in all cases: cell-based
[1] = test system: K. pneumoniae 4104; assay: MIC against K. pneumoniae 4104; conditions: K. pneumoniae 4104, KPC-3, TEM-1
Description: (§1) As shown, the foregoing composition was tested for minimum inhibitory concentration (MIC, μg/mL) against bacteria listed in Tables 2-3.

[2] = test system: K. pneumoniae 4105; assay: MIC against K. pneumoniae 4105; conditions: K. pneumoniae 4105, KPC-3, TEM-1, SHV-11
Description: as §1

[3] = test system: K. pneumoniae 4106; assay: MIC against K. pneumoniae 4106; conditions: K. pneumoniae 4106, KPC-3, TEM-1, SHV-12, SHV-141
Description: as §1

[4] = test system: K. pneumoniae 4107; assay: MIC against K. pneumoniae 4107; conditions: K. pneumoniae 4107, KPC-2, TEM-1, SHV-11
Description: as §1

[5] = test system: K. pneumoniae 4108; assay: MIC against K. pneumoniae 4108; conditions: K. pneumoniae 4108, KPC-3, TEM-166, SHV-12, SHV-141
Description: as §1

[6] = test system: K. pneumoniae 2689; assay: MIC against K. pneumoniae 2689; conditions: K. pneumoniae 2689, KPC-2
Description: as §1

[7] = test system: E. cloacae 2689; assay: MIC against E. cloacae 2689; conditions: Table 3, E. cloacae 2689, KPC-2
Description: as §1

[8] = test system: E. cloacae 2705; assay: MIC against E. cloacae 2705; conditions: Table 3, E. cloacae 2705, VIM-1, KPC-3type
Description: as §1

[9] = test system: E. cloacae 2706; assay: MIC against E. cloacae 2706; conditions: Table 3, E. cloacae 2706, VIM-1, KPC-3
Description: as §1

[10] = test system: E. cloacae 2709; assay: MIC against E. cloacae 2709; conditions: Table 3, E. cloacae 2709, KPC-3, VIM-1
Description: as §1

[11] = test system: E. cloacae 2710; assay: MIC against E. cloacae 2710; conditions: Table 3, E. cloacae 2710, KPC-3, VIM-1
Description: as §1

[12] = test system: E. coli 2666; assay: MIC against E. coli 2666; conditions: Table 3, E. coli 2666, KPC-2
Description: as §1

[13] = test system: E. coli 4103; assay: MIC against E. coli 4103; conditions: Table 3, E. coli 4103, KPC-2, TEM-1, CMY-type
Description: as §1

[14] = test system: K. pneumoniae 2690; assay: MIC against K. pneumoniae 2690; conditions: Table 3, K. pneumoniae 2690, KPC-2
Description: as §1

[15] = test system: K. pneumoniae 2711; assay: MIC against K. pneumoniae 2711; conditions: Table 3, K. pneumoniae 2711, KPC-3, VIM-1
Description: as §1

[16] = test system: K. pneumoniae 2712; assay: MIC against K. pneumoniae 2712; conditions: Table 3, K. pneumoniae 2712, KPC-3, VIM-1
Description: as §1

[17] = test system: K. pneumoniae 2713; assay: MIC against K. pneumoniae 2713; conditions: Table 3, K. pneumoniae 2713, KPC-3, VIM-1
Description: as §1

[18] = test system: K. pneumoniae 4088; assay: MIC against K. pneumoniae 4088; conditions: Table 3, K. pneumoniae 4088, KPC-3
Description: as §1

[19] = test system: P. aeruginosa 2686; assay: MIC against P. aeruginosa 2686; conditions: Table 3, P. aeruginosa 2686, KPC-2
Description: as §1

[20] = Klebsiella pneumoniae, 4104, Table 3, alone, read-out: MIC
[21] = Table 3, in combination with NXL-104
[22] = Klebsiella pneumoniae, 4105, Table 3, alone, read-out: MIC
[23] = Klebsiella pneumoniae, 4106, Table 3, alone, read-out: MIC
[24] = Klebsiella pneumoniae, 4107, Table 3, alone, read-out: MIC
[25] = Klebsiella pneumoniae, 4108, Table 3, alone, read-out: MIC
[26] = Klebsiella pneumoniae, 2689, Table 3, alone, read-out: MIC
[27] = Enterobacter cloacae, alone, read-out: MIC
[28] = Escherichia coli, alone, read-out: MIC
[29] = Klebsiella pneumoniae, alone, read-out: MIC
[30] = Pseudomonas aeruginosa, alone, read-out: MIC

Row | SMILES | MIC [1, 20] | MIC [1, 21] | MIC [2, 22] | MIC [2, 21] | MIC [3, 23] | MIC [3, 21] | MIC [4, 24] | MIC [4, 21] | MIC [5, 25] | MIC [5, 21] | MIC [6, 26] | MIC [6, 21] | MIC [7, 27] | MIC ([7]; in combination with NXL-104) | MIC [8, 27] | MIC ([8]; in combination with NXL-104) | MIC [9, 27] | MIC ([9]; in combination with NXL-104) | MIC [10, 27] | MIC ([10]; in combination with NXL-104) | further results
1 | CC(C)(O/N=C(\C(=O)N[C@@H]1C(=O)N2C(C(=O)[O-])=C(C[n+]3ccc4n(Cc5ccc(C(=N)N)cc5)ccn43)CS[C@H]12)c1csc(N)n1)C(=O)O [Example 4, (6R,7R)-7-{[(2Z)-2-(2-Amino-1,3-thiazol-4-yl)-2-{[(2-carboxypropan-2-yl)oxy]imino}acetyl]amino}-3-{[1-(4-carbamimidoylbenzyl)-1H-imidazo[1,2-b]pyrazol-5-ium-5-yl]methyl}-8-oxo-5-thia-1-azabicyclo[4.2.0]oct-2-ene-2-carboxylate] | 16 µg/mL (≈ 22.6 µM) | 1 µg/mL | > 32 µg/mL | 2 µg/mL | 32 µg/mL (≈ 45.3 µM) | 4 µg/mL | 32 µg/mL (≈ 45.3 µM) | 2 µg/mL | > 32 µg/mL | 2 µg/mL | 16 µg/mL (≈ 22.6 µM) | 1 µg/mL | 4 µg/mL (≈ 5.66 µM) | 0.5 µg/mL | > 32 µg/mL | >32 µg/mL | > 32 µg/mL | 32 µg/mL | 8 µg/mL (≈ 11.3 µM) | 4 µg/mL | MIC [11, 27]: > 32 µg/mL; MIC ([11]; in combination with NXL-104): >32 µg/mL; MIC [12, 28]: 32 µg/mL (≈ 45.3 µM); MIC ([12]; in combination with NXL-104): 2 µg/mL; MIC [13, 28]: > 32 µg/mL; MIC ([13]; in combination with NXL-104): 8 µg/mL; MIC [14, 29]: 16 µg/mL (≈ 22.6 µM); MIC ([14]; in combination with NXL-104): 2 µg/mL; MIC [15, 29]: 8 µg/mL (≈ 11.3 µM); MIC ([15]; in combination with NXL-104): 1 µg/mL; MIC [16, 29]: > 32 µg/mL; MIC ([16]; in combination with NXL-104): 4 µg/mL; MIC [17, 29]: > 32 µg/mL; MIC ([17]; in combination with NXL-104): 2 µg/mL; MIC [18, 29]: > 32 µg/mL; MIC ([18]; in combination with NXL-104): 4 µg/mL; MIC [19, 30]: 32 µg/mL (≈ 45.3 µM); MIC ([19]; in combination with NXL-104): 8 µg/mL
2 | CO/N=C(\C(=O)N[C@@H]1C(=O)N2C(C(=O)[O-])=C(C[n+]3ccc4c(ccn4Cc4cc(C(=N)Nc5ccccc5)cs4)c3)CS[C@H]12)c1nc(N)sc1Cl [Example 12, (6R,7R)-7-{[(2Z)-2-(2-Amino-5-chloro-1,3-thiazol-4-yl)-2-(methoxyimino)acetyl]amino}-8-oxo-3-[(1-{[4-(N-phenylcarbamimidoyl)thiophen-2-yl]methyl}-1H-pyrrolo[3,2-c]pyridin-5-ium-5-yl)methyl]-5-thia-1-azabicyclo[4.2.0]oct-2-ene-2-carboxylate] | 16 µg/mL (≈ 21 µM) | 1 µg/mL | 32 µg/mL (≈ 42 µM) | 2 µg/mL | 32 µg/mL (≈ 42 µM) | 2 µg/mL | 16 µg/mL (≈ 21 µM) | 1 µg/mL | 32 µg/mL (≈ 42 µM) | 1 µg/mL | 16 µg/mL (≈ 21 µM) | 1 µg/mL | 32 µg/mL (≈ 42 µM) | 1 µg/mL | > 32 µg/mL | >32 µg/mL | > 32 µg/mL | >32 µg/mL | 32 µg/mL (≈ 42 µM) | 4 µg/mL | MIC [11, 27]: > 32 µg/mL; MIC ([11]; in combination with NXL-104): >32 µg/mL; MIC [12, 28]: 16 µg/mL (≈ 21 µM); MIC ([12]; in combination with NXL-104): 1 µg/mL; MIC [13, 28]: > 32 µg/mL; MIC ([13]; in combination with NXL-104): 4 µg/mL; MIC [14, 29]: 8 µg/mL (≈ 10.5 µM); MIC ([14]; in combination with NXL-104): 1 µg/mL; MIC [15, 29]: 4 µg/mL (≈ 5.25 µM); MIC ([15]; in combination with NXL-104): 0.5 µg/mL; MIC [16, 29]: > 32 µg/mL; MIC ([16]; in combination with NXL-104): 4 µg/mL; MIC [17, 29]: > 32 µg/mL; MIC ([17]; in combination with NXL-104): 2 µg/mL; MIC [18, 29]: > 32 µg/mL; MIC ([18]; in combination with NXL-104): 2 µg/mL; MIC [19, 30]: 32 µg/mL (≈ 42 µM); MIC ([19]; in combination with NXL-104): 32 µg/mL
3 | CO/N=C(\C(=O)N[C@@H]1C(=O)N2C(C(=O)[O-])=C(C[n+]3ccc4c(ccn4Cc4cc(C(=N)Nc5nccs5)cs4)c3)CS[C@H]12)c1nc(N)sc1Cl [Example 14, (6R,7R)-7-{[(2Z)-2-(2-Amino-5-chloro-1,3-thiazol-4-yl)-2-(methoxyimino)acetyl]amino}-8-oxo-3-{[1-({4-[N-(1,3-thiazol-2-yl)carbamimidoyl]thiophen-2-yl}methyl)-1H-pyrrolo[3,2-c]pyridin-5-ium-5-yl]methyl}-5-thia-1-azabicyclo[4.2.0]oct-2-ene-2-carboxylate] | 32 µg/mL (≈ 41.6 µM) | 1 µg/mL | > 32 µg/mL | 2 µg/mL | > 32 µg/mL | 4 µg/mL | 16 µg/mL (≈ 20.8 µM) | 2 µg/mL | > 32 µg/mL | 2 µg/mL | 32 µg/mL (≈ 41.6 µM) | 1 µg/mL | 16 µg/mL (≈ 20.8 µM) | 0.5 µg/mL | > 32 µg/mL | >32 µg/mL | > 32 µg/mL | 32 µg/mL | 32 µg/mL (≈ 41.6 µM) | 4 µg/mL | MIC [11, 27]: > 32 µg/mL; MIC ([11]; in combination with NXL-104): >32 µg/mL; MIC [12, 28]: 32 µg/mL (≈ 41.6 µM); MIC ([12]; in combination with NXL-104): 1 µg/mL; MIC [13, 28]: > 32 µg/mL; MIC ([13]; in combination with NXL-104): 8 µg/mL; MIC [14, 29]: 32 µg/mL (≈ 41.6 µM); MIC ([14]; in combination with NXL-104): 1 µg/mL; MIC [15, 29]: 4 µg/mL (≈ 5.2 µM); MIC ([15]; in combination with NXL-104): 0.5 µg/mL; MIC [16, 29]: > 32 µg/mL; MIC ([16]; in combination with NXL-104): 4 µg/mL; MIC [17, 29]: > 32 µg/mL; MIC ([17]; in combination with NXL-104): 2 µg/mL; MIC [18, 29]: > 32 µg/mL; MIC ([18]; in combination with NXL-104): 4 µg/mL; MIC [19, 30]: > 32 µg/mL; MIC ([19]; in combination with NXL-104): 16 µg/mL
